From patent publication US9409983B2, “Methods and compositions involving PBEF inhibitors for lung inflammation conditions and diseases” (The Board of Trustess of the University of Illinois, priority 2009, dated 2016)
“Also recorded” adds a separate entry of the source.

How the values were obtained:
[1] = tested on: rat peritoneal neutrophils; assay: Transmigration and chemotaxis assay (Transwell); type: cell-based; settings: rhPBEF (10 ng/ul) or casein in lower chamber, up to 4 hours
Experimental: Chemotaxis of rat peritoneal neutrophils (calcein-AM) across 3 μm polycarbonate filters was assessed in response to recombinant human PBEF/visfatin (rhPBEF, PeproTech, Rocky Hill, N.J.), or casein (positive control). (See Supplemental Methods for additional details).
Neutrophils were collected from retired breeder male Harlan-Sprague Dawley rats by intraperitoneal injection of 2.5% casein (5 ml). The resulting peritoneal fluid was recovered by PBS peritoneal lavage after 18 hr, centrifuged and examined for total cell counts and cell differentiation. For chemotaxis assays, leukocytes were exposed to calcein-AM in the presence of plurionic acid for 1 hr at room temperature. The temperature was then elevated to 37° C. for 30 min to cleave the calcein AM thereby reducing the rate of calcein diffusion out of the cells. […] The receiving wells were assessed serially in a fluorescent plate reader with absorption at 494 nm and emission measured at 517 nm. Fluorescence was recorded at 5, 10, 15, 30 min and each subsequent 30 min period for up to 4 hr. Aliquots of known numbers of neutrophils were counted in separate wells at each time point to account for any quenching of the fluorescence over time.

[2] = tested on: C57BL/6 mice; assay: Intratracheal rhPBEF instillation in spontaneously breathing mice (BAL, tissue albumin, cytokines, histology); type: in vivo, mouse
Experimental: The first VILI model was designed to produce limited lung injury (VILIa, tidal volume 30 ml/kg), thus allowing assessment of potential synergy with rhPBEF challenge. Male C57BL/6J B6 mice were anesthetized with ketamine/acepromazine, intubated and administered rhPBEF (20 μg/mouse) via an intratracheal (IT) route ˜30 min before ventilator placement (room air, tidal volume 30 ml/kg, 65 breaths/minute, 0 cm H2O PEEP) for 4 hr as previously described (Nonas et al., 2007; Moitra et al., 2007). Groups included a spontaneous breathing group (SB), a spontaneous breathing group challenged with rhPBEF (SB-rhPBEF), a high tidal ventilation group (VILIa), and a high tidal ventilation group with rhPBEF challenge (VILIa-rhPBEF) (n=4-6 all groups).
BAL fluid recovered as we previously described was used for multiple assays including total BAL protein, and BAL cell differentials (Peng et al., 2004). Tissue albumin content was assessed as previously described (Nonas et al., 2007). Cytokine levels in BAL fluid (IL-1β, IL-6, KC, MIP2, TNF-α) were analyzed by multiplex assays (Bio-Rad, Hercules, Calif., USA). BAL PBEF levels were assayed by a C-terminal ELISA (Phoenix Pharmaceuticals Inc. Belmont, Calif.) and analyzed using the SoftmaxPRO software (Molecular Devices Corp). (See Supplemental Methods).
We utilized two experimental models of ventilator-induce lung injury in these experiments. Our first approach (VILIa) utilized a VILI protocol with a tidal volume of 30 ml/kg designed to produce limited lung injury in order to allow assessment of potential synergism between delivered PBEF and mechanical ventilation-induced lung injury. Male C57BL/6J mice (8-12 wk old, 24.7±2.0 g) were weighed, anesthetized with ketamine/acepromazine, intubated using a 20 gauge catheter (Medex, Inc, Carlsbad, Calif.) and administered recombinant PBEF ([…] of water) via an intratracheal (IT) route ˜30 min before being placed on mechanical ventilation as we have previously described (Peng et al., 2004). Mice were then connected to Harvard Apparatus ventilator (Boston, Mass.) at room air, tidal volume of 30 ml/kg, 65 breaths/minute, and positive expiratory pressure (PEEP) 0 cm H2O for 4 hr. Groups of mice were randomly allocated to either the spontaneous breathing group (SB) (n=4), the spontaneous breathing challenged with IT rhPBEF group (SB-rhPBEF) (n=6), the high tidal ventilation group (VILIa) (n=6), or high tidal ventilation with rhPBEF group (VILIa-rhPBEF) (n=6). Normal saline (0.2 cc) was given via intraperitoneal injection at the beginning and 2 hours later to all ventilated mice and peak inspiratory pressure was monitored continuously. Temperature was maintained with heat blanket to all mice during experiment.
Mice underwent bronchioalveolar lavage (BAL) of both lungs with Hank's balanced salt solution (1 mL/mouse), and the recovered BAL fluid was used for assays as we have previously described (Peng et al., 2004). Total protein was measured using the Bio-Rad DC Protein Assay (Bio-Rad Laboratories, Hercules, Calif.) (Peng et al., 2004). Protein results were expressed as mg/ml to allow for comparison to other studies. Lavage samples were centrifuged at 500×g on a refrigerated micro centrifuge for 20 min. The supernatant was decanted and aliquot for protein assays. The BAL cells were resuspended in Hank's balanced salt solution and counted using a hemacytometer using standard techniques.
Re-suspended BAL cells from lung lavage were centrifuged using a Shandon Cytospin-2 at 600 RPM for 15 min, fixed by air-drying, and stained with Diff-Quik dye for differential counts (Peng et al., 2004). Stained cell slides were evaluated and differentially counted for each individual animal (lymphocyte, neutrophil or a macrophage).
BAL fluid for cytokine measurements was stored at −80° C. until analysis. […]

[3] = tested on: C57BL/6 mice; assay: Lung RNA microarray analysis (SAM dysregulated genes) with RT-PCR and BAL ELISA validation; type: in vivo, mouse
[4] = spontaneously breathing mice, rhPBEF
[5] = VILIa-rhPBEF vs. Control, SAM, fold change 2
[6] = VILIa-rhPBEF vs. VILIa, SAM, fold change 2
[7] = rhPBEF vs. Control, SAM, fold change 2

Substance: rhPBEF: Recombinant human soluble PBEF/visfatin, a 52 kDa protein containing 465 amino acid residues, purchased from PeproTech
- PMN migration across Transwell filters [1]: significant PMN migration beginning after 2 hrs; also recorded: significant PMN migration beginning at 2 hrs
- BAL IL-1β ([2]; SB-rhPBEF): 55 ± 22 pg/mL
- BAL TNF-α ([2]; SB-rhPBEF): 262 ± 94 pg/mL
- histologic assessment of lung tissue (hematoxylin and eosin) ([2]; SB-rhPBEF, 20 μg/mouse in 30 μl saline intratracheal): mild inflammation; also recorded: macrophage & neutrophil infiltration and edematous alveolar areas
- BAL IL-6 [2, 4]: 319 ± 67 pg/mL
- BAL KC [2, 4]: 1388 ± 169 pg/mL
- BAL MIP-2 [2, 4]: 29026 ± 762 pg/mL
- Significant probe sets [3, 5]: 836
- Unique Down [3, 5]: 258
- Unique Up [3, 5]: 432
- Unique gene (dysregulated genes) [3, 5]: 690
- Significant probe sets [3, 6]: 82
- Unique Down [3, 6]: 0
- Unique Up [3, 6]: 65
- Unique gene (differentially expressed genes) [3, 6]: 65
- BCL3 DNA microarray, average fold change increase over control ([3]; rhPBEF): 7 fold change
- BCL3 RNA (RT-PCR), average fold change increase over control ([3]; rhPBEF): 4 fold change
- CxCL1 (KC) Protein (BAL levels by ELISA), average fold change increase over control ([3]; rhPBEF): 43 fold change
- CxCL1 (KC) RNA (RT-PCR), average fold change increase over control ([3]; rhPBEF): 146 fold change
- CxCL2 (MIP2α) DNA microarray, average fold change increase over control ([3]; rhPBEF): 2290 fold change
- CxCL2 (MIP2α) Protein (BAL levels by ELISA), average fold change increase over control ([3]; rhPBEF): 115 fold change
- CxCL2 (MIP2α) RNA (RT-PCR), average fold change increase over control ([3]; rhPBEF): 613 fold change
- IL-1-β DNA microarray, average fold change increase over control ([3]; rhPBEF): 70 fold change
- IL-1-β Protein (BAL levels by ELISA), average fold change increase over control ([3]; rhPBEF): 3 fold change
- IL-6 DNA microarray, average fold change increase over control ([3]; rhPBEF): 240 fold change
- IL-6 Protein (BAL levels by ELISA), average fold change increase over control ([3]; rhPBEF): 9 fold change
- MMP9 DNA microarray, average fold change increase over control ([3]; rhPBEF): 16 fold change
- MMP9 RNA (RT-PCR), average fold change increase over control ([3]; rhPBEF): 16 fold change
- Map3k8 RNA (RT-PCR), average fold change increase over control ([3]; rhPBEF): 1 fold change
- TNF-α Protein (BAL levels by ELISA), average fold change increase over control ([3]; rhPBEF): 43 fold change
- BCL3 RNA (RT-PCR), average fold change increase over control ([3]; rhPBEF VILIa): 10 fold change
- CxCL1 (KC) Protein (BAL levels by ELISA), average fold change increase over control ([3]; rhPBEF VILIa): 45 fold change
- CxCL1 (KC) RNA (RT-PCR), average fold change increase over control ([3]; rhPBEF VILIa): 148 fold change
- CxCL2 (MIP2α) Protein (BAL levels by ELISA), average fold change increase over control ([3]; rhPBEF VILIa): 196 fold change
- CxCL2 (MIP2α) RNA (RT-PCR), average fold change increase over control ([3]; rhPBEF VILIa): 1479 fold change
- IL-1-β DNA microarray, average fold change increase over control ([3]; rhPBEF VILIa): 87 fold change
- IL-1-β Protein (BAL levels by ELISA), average fold change increase over control ([3]; rhPBEF VILIa): 3 fold change
- IL-6 DNA microarray, average fold change increase over control ([3]; rhPBEF VILIa): 900 fold change
- IL-6 Protein (BAL levels by ELISA), average fold change increase over control ([3]; rhPBEF VILIa): 27 fold change
- MMP9 RNA (RT-PCR), average fold change increase over control ([3]; rhPBEF VILIa): 1 fold change
- Map3k8 DNA microarray, average fold change increase over control ([3]; rhPBEF VILIa): 4 fold change
- Map3k8 RNA (RT-PCR), average fold change increase over control ([3]; rhPBEF VILIa): 2 fold change
- TNF-α DNA microarray, average fold change increase over control ([3]; rhPBEF VILIa): 23 fold change
- TNF-α Protein (BAL levels by ELISA), average fold change increase over control ([3]; rhPBEF VILIa): 45 fold change
- Significant probe sets [3, 7]: 613
- Unique Up [3, 7]: 375
- Unique gene (dysregulated genes) [3, 7]: 493
